The target of this experiment is T1, LovD acyltransferase (Aspergillus terreus, UniProt Q9Y7D1).
T1 sequence (Q9Y7D1 1-413): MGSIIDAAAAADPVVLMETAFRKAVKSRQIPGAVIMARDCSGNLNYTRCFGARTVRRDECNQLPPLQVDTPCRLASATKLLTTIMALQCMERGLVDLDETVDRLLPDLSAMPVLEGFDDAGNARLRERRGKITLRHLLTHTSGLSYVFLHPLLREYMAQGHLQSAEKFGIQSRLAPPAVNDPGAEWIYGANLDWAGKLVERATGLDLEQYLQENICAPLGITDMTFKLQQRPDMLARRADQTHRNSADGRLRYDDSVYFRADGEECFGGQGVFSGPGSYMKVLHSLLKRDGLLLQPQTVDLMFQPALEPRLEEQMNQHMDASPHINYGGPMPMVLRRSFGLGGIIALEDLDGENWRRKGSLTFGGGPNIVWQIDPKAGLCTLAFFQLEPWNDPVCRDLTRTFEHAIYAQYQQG
Nature of the experiment: LovD acyltransferase mediated acylation: relative activity of thioester acyl donors. Type of experiment: biochemical. Particulars: thioester as acyl donor. An excerpt:
Any one or more compounds shown in Table 1 may be used as thioesters in the methods of the present disclosure. Compound IV is one preferred thioester as its relative activity is high.
On to `CCC(C)(C)C(=O)SCCC(=O)OC` [Compound IV], for which the “Relative activity at 24 h (%)” value is on record as “++++ (++++ = 75-100)”. On to `CCCCSC(=O)C(C)(C)CC` [IX], for which the “Relative activity at 24 h (%)” value is recorded as “+++ (+++ = 10-75)”. In the case of `CCC(C)(C)C(=O)SC(C)C` [VIII] it was “+ (+ = 0-1)”; in that of `CCSC(=O)C(C)(C)CC` [VII], “++ (++ = 1-10)”. Consider `CCC(C)(C)C(=O)SC` [VI], for which the “Relative activity at 24 h (%)” value is on record as “+ (+ = 0-1)”. For the compound `CCC(C)(C)C(=O)SCC(=O)OC` [V], the “Relative activity at 24 h (%)” value is “++ (++ = 1-10)”.

(Values after patent US12060592B2, “Lov-D acyltransferase mediated acylation” (priority 2009, dated 2024).)
